From ChEMBL document CHEMBL3885881, “DrugMatrix”

Species: Rattus norvegicus
Test: DrugMatrix - Regimen: Daily Repeat
Type: toxicity, organism-based, Sprague-Dawley
Design: regimen Daily Repeat, gender Male, age 6-8 weeks
Details: in vivo, po, route oral GAVAGE, vehicle .5 % CMC; for BASOPHIL / EOSINOPHIL / ERYTHROCYTE COUNT / HEMATOCRIT / HEMOGLOBIN / LEUKOCYTE COUNT / LYMPHOCYTE / MEAN CORPUSCULAR HEMOGLOBIN / MEAN CORPUSCULAR HEMOGLOBIN CONCENTRATION / MEAN CORPUSCULAR VOLUME / MONOCYTE / NEUTROPHIL / PLATELET COUNT: tissue Blood; for ALANINE AMINOTRANSFERASE / ALBUMIN / ALKALINE PHOSPHATASE / ASPARTATE AMINOTRANSFERASE / BLOOD UREA NITROGEN / CHLORIDE / CHOLESTEROL / CREATINE PHOSPHOKINASE / CREATININE / GLUCOSE / PHOSPHORUS / POTASSIUM / SODIUM / TOTAL PROTEIN: tissue Plasma
[1] = 80 mg/kg, 120 h, dose level Low, time 5 day
[2] = 2000 mg/kg, 72 h, dose level High, time 3 day
[3] = 2000 mg/kg, 120 h, dose level High, time 5 day

## CN(C/C=C/C#CC(C)(C)C)Cc1cccc2ccccc12 [TERBINAFINE]
[1]
  BASOPHIL: 0%
  EOSINOPHIL: 0.33%
  ERYTHROCYTE COUNT: 5.98 x10E6/uL
  HEMATOCRIT: 35.23%
  HEMOGLOBIN: 12.83 G/DL
  LEUKOCYTE COUNT: 13.7 x10E3/uL
  LYMPHOCYTE: 85.33%
  MEAN CORPUSCULAR HEMOGLOBIN: 21.47 pg
  MEAN CORPUSCULAR HEMOGLOBIN CONCENTRATION: 36.4 G/DL
  MEAN CORPUSCULAR VOLUME: 58.97 fL
  MONOCYTE: 0%
  NEUTROPHIL: 14%
  PLATELET COUNT: 1155 x10E3/uL
  ALANINE AMINOTRANSFERASE: 39 u/L
  ALBUMIN: 3.43 G/DL
  ALKALINE PHOSPHATASE: 357.33 u/L
  ASPARTATE AMINOTRANSFERASE: 60.33 u/L
  BLOOD UREA NITROGEN: 13.33 mg/dL
  CHLORIDE: 106.67 MEQ/L
  CHOLESTEROL: 67.33 mg/dL
  CREATINE PHOSPHOKINASE: 121.67 u/L
  CREATININE: 0.47 mg/dL
  GLUCOSE: 151.33 mg/dL
  PHOSPHORUS: 9.77 mg/dL
  POTASSIUM: 6.7 MEQ/L
  SODIUM: 151.33 MEQ/L
  TOTAL PROTEIN: 5.73 G/DL
[2]
  BASOPHIL: 0%
  EOSINOPHIL: 0%
  ERYTHROCYTE COUNT: 6.96 x10E6/uL
  HEMATOCRIT: 41.1%
  HEMOGLOBIN: 15.27 G/DL
  LEUKOCYTE COUNT: 8.67 x10E3/uL
  LYMPHOCYTE: 76.67%
  MEAN CORPUSCULAR HEMOGLOBIN: 21.9 pg
  MEAN CORPUSCULAR HEMOGLOBIN CONCENTRATION: 37.13 G/DL
  MEAN CORPUSCULAR VOLUME: 58.93 fL
  MONOCYTE: 0%
  NEUTROPHIL: 23.33%
  PLATELET COUNT: 1235.33 x10E3/uL
  ALANINE AMINOTRANSFERASE: 55.67 u/L
  ALBUMIN: 3.63 G/DL
  ALKALINE PHOSPHATASE: 246.33 u/L
  ASPARTATE AMINOTRANSFERASE: 120.33 u/L
  BLOOD UREA NITROGEN: 11.33 mg/dL
  CHLORIDE: 108.67 MEQ/L
  CHOLESTEROL: 105.33 mg/dL
  CREATINE PHOSPHOKINASE: 122 u/L
  CREATININE: 0.5 mg/dL
  GLUCOSE: 140.67 mg/dL
  PHOSPHORUS: 10.4 mg/dL
  POTASSIUM: 6.3 MEQ/L
  SODIUM: 156.33 MEQ/L
  TOTAL PROTEIN: 5.9 G/DL
[3]
  BASOPHIL: 0%
  EOSINOPHIL: 0.33%
  ERYTHROCYTE COUNT: 6.14 x10E6/uL
  HEMATOCRIT: 37.1%
  HEMOGLOBIN: 13.7 G/DL
  LEUKOCYTE COUNT: 6.8 x10E3/uL
  LYMPHOCYTE: 87.33%
  MEAN CORPUSCULAR HEMOGLOBIN: 22.37 pg
  MEAN CORPUSCULAR HEMOGLOBIN CONCENTRATION: 36.9 G/DL
  MEAN CORPUSCULAR VOLUME: 60.57 fL
  MONOCYTE: 0%
  NEUTROPHIL: 12.33%
  PLATELET COUNT: 1319.67 x10E3/uL
  ALANINE AMINOTRANSFERASE: 37.67 u/L
  ALBUMIN: 3.6 G/DL
  ALKALINE PHOSPHATASE: 327.67 u/L
  ASPARTATE AMINOTRANSFERASE: 56 u/L
  BLOOD UREA NITROGEN: 12 mg/dL
  CHLORIDE: 106.33 MEQ/L
  CHOLESTEROL: 84.67 mg/dL
  CREATINE PHOSPHOKINASE: 117.33 u/L
  CREATININE: 0.53 mg/dL
  GLUCOSE: 141 mg/dL
  PHOSPHORUS: 10.63 mg/dL
  POTASSIUM: 6.4 MEQ/L
  SODIUM: 152 MEQ/L
  TOTAL PROTEIN: 5.73 G/DL
